In publication PMC6792352, “Limited Chemical Structural Diversity Found to Modulate Thyroid Hormone Receptor in the Tox21 Chemical Library” (Environmental Health Perspectives, 2019):
Structures can show the parent of a compound that is named as a salt.

Assay: in vitro
Settings: rat, gh3-tre-luc cells

Q: Which CC50 at 24 h (AC50 (uM) modified / 1000) does the source give for `CCCCc1oc2ccc(NS(C)(=O)=O)cc2c1C(=O)c1ccc(OCCCN(CCCC)CCCC)cc1` [Dronedarone] here?
A: 9.94 µM

Q: Which CC50 at 24 h (AC50 (uM) modified / 1000) does the source give for `CC(=O)OCC(=O)[C@H]1CC[C@H]2[C@@H]3CC[C@H]4C[C@H](O)CC[C@]4(C)[C@H]3C(=O)C[C@]12C` [Alfadolone acetate] here?
A: > 20 µM

Q: With `COc1cc(C)c(Cc2cnc(N)nc2N)cc1OC` [Ormetoprim] as the compound, how does the CC50 at 24 h (AC50 (uM) modified / 1000) read?
A: > 50 µM

Q: With `CCC(=O)O[C@@H]1C[C@H]2CC[C@]1(C)C2(C)C` (racemic) [Isobornyl propanoate] as the compound, how does the CC50 at 24 h (AC50 (uM) modified / 1000) read?
A: > 90 µM

Q: With `CCN(Cc1ccc(Cl)nc1)/C(=C/[N+](=O)[O-])NC` [(E)-Nitenpyram] as the compound, how does the CC50 at 24 h (AC50 (uM) modified / 1000) read?
A: > 50 µM

Q: With `C=C(C)C(=O)OCc1ccccc1` [Benzyl methacrylate] as the compound, how does the CC50 at 24 h (AC50 (uM) modified / 1000) read?
A: > 90 µM

Q: With `CCCSP(=O)(OCC)SCCC` [Ethoprop] as the compound, how does the CC50 at 24 h (AC50 (uM) modified / 1000) read?
A: > 90 µM

Q: With `O=[N+]([O-])CCO` [2-Nitroethanol] as the compound, how does the CC50 at 24 h (AC50 (uM) modified / 1000) read?
A: > 100 µM

Q: With `CC(O)COC(C)(C)C` (stereo not shown) [1-tert-Butoxy-2-propanol] as the compound, how does the CC50 at 24 h (AC50 (uM) modified / 1000) read?
A: > 90 µM

Q: With `CC(=O)Oc1cc(C(F)(F)F)ccc1C(=O)O` [Triflusal] as the compound, how does the CC50 at 24 h (AC50 (uM) modified / 1000) read?
A: > 20 µM

Q: For `N=C(N)NCC1COc2ccccc2O1` (stereo not shown) [Guanoxan], which CC50 at 24 h (AC50 (uM) modified / 1000) is on record?
A: > 50 µM

Q: For `CCCCCCCCCCCCCCCC(=O)OC(C)C` [Hexadecanoic acid, 1-methylethyl ester], which CC50 at 24 h (AC50 (uM) modified / 1000) is on record?
A: > 50 µM

Q: For `ClC=C(Cl)Cl` [Trichloroethylene], which CC50 at 24 h (AC50 (uM) modified / 1000) is on record?
A: > 90 µM

Q: With `OCC(CO)(CBr)CBr` [Pentaerythritol dibromide] as the compound, how does the CC50 at 24 h (AC50 (uM) modified / 1000) read?
A: > 90 µM

Q: With `C=CC(C)(CCC=C(C)C)OC(=O)C(C)C` (stereo not shown) [Linalyl isobutyrate] as the compound, how does the CC50 at 24 h (AC50 (uM) modified / 1000) read?
A: > 90 µM

Q: Which CC50 at 24 h (AC50 (uM) modified / 1000) does the source give for `CCCCCCO` [1-Hexanol] here?
A: > 90 µM

Q: With `CC(=O)Oc1c(C)cc(OCC(O)CNC(C)C)c(C)c1C` (stereo not shown) [Metipranolol] as the compound, how does the CC50 at 24 h (AC50 (uM) modified / 1000) read?
A: > 50 µM

Q: With `O=C(O)c1ccccc1-n1cc(C(=O)O)c(=O)c2cc(Nc3c(F)cc(F)cc3Cl)c(Cl)cc21` [AVE9423] as the compound, how does the CC50 at 24 h (AC50 (uM) modified / 1000) read?
A: > 90 µM

Q: Which CC50 at 24 h (AC50 (uM) modified / 1000) does the source give for `Cc1cccc(Nc2cc(Cl)nc(SCC(=O)O)n2)c1C` [Pirinixic acid] here?
A: > 90 µM

Q: With `[O-][S+](c1cc(Cl)cc(Cl)c1O)c1cc(Cl)cc(Cl)c1O` [Bithionoloxide] as the compound, how does the CC50 at 24 h (AC50 (uM) modified / 1000) read?
A: 46 µM

Q: For `BrCBr` [Dibromomethane], which CC50 at 24 h (AC50 (uM) modified / 1000) is on record?
A: > 90 µM

Q: With `c1ccc(-c2ccccn2)nc1` [2,2'-Bipyridine] as the compound, how does the CC50 at 24 h (AC50 (uM) modified / 1000) read?
A: > 90 µM

Q: Which CC50 at 24 h (AC50 (uM) modified / 1000, Tox21_110001=Tox21_300752, viability, 1 nM T3 present, 24 h) does the source give for `CCCSP(=O)(OCC)Oc1ccc(Br)cc1Cl` (stereo not shown) [Profenofos] here?
A: > 50 µM

Q: For `CC1=C(Br)C(=O)C(Br)=C/C1=C(/c1ccccc1S(=O)(=O)O)c1cc(Br)c(O)c(Br)c1C` [Bromocresol green sodium salt], which CC50 at 24 h (AC50 (uM) modified / 1000) is on record?
A: 44.7 µM

Q: With `N=C(N)NN` [Aminoguanidine hydrochloride] as the compound, how does the CC50 at 24 h (AC50 (uM) modified / 1000) read?
A: > 90 µM

Q: For `O=C1NC(=O)[C@@H]2CC=CC[C@H]12` [1,2,3,6-Tetrahydrophthalimide], which CC50 at 24 h (AC50 (uM) modified / 1000) is on record?
A: > 90 µM

Q: For `CC(C)(C)c1ccc(CCC=O)cc1` [3-(4-tert-Butylphenyl)propanal], which CC50 at 24 h (AC50 (uM) modified / 1000) is on record?
A: > 90 µM

Q: For `O=C(O)[C@H](O)[C@@H](O)C(=O)O` [L-Tartaric acid], which CC50 at 24 h (AC50 (uM) modified / 1000) is on record?
A: > 90 µM

Q: Which CC50 at 24 h (AC50 (uM) modified / 1000) does the source give for `C[C@H]1C[C@H]2[C@@H]3CCC4=CC(=O)C=C[C@]4(C)[C@@]3(F)[C@@H](O)C[C@]2(C)[C@@]1(O)C(=O)CCl` [Clobetasol] here?
A: > 50 µM

Q: With `CC(C)(C)c1cc(CO)cc(C(C)(C)C)c1O` as the compound, how does the CC50 at 24 h (AC50 (uM) modified / 1000) read?
A: 82.2 µM

Q: What does the source list for `CNC(=O)O/N=C(\SC)C(=O)N(C)C` [Oxamyl]?
A: CC50 at 24 h (AC50 (uM) modified / 1000, Tox21_110001=Tox21_201731, viability, 1 nM T3 present, 24 h): > 100 µM; CC50 at 24 h (AC50 (uM) modified / 1000, Tox21_110001=Tox21_301156, viability, 1 nM T3 present, 24 h): > 90 µM

Q: For `COc1ccc(-c2noc(CC(=O)O)c2-c2ccc(OC)cc2)cc1` [Mofezolac], which CC50 at 24 h (AC50 (uM) modified / 1000) is on record?
A: > 50 µM

Q: With `CCOC(=O)COC(=O)c1cc(Oc2ccc(C(F)(F)F)cc2Cl)ccc1[N+](=O)[O-]` [Fluoroglycofen-ethyl] as the compound, how does the CC50 at 24 h (AC50 (uM) modified / 1000) read?
A: > 90 µM

Q: Which CC50 at 24 h (AC50 (uM) modified / 1000) does the source give for `COc1cccc(OC)c1C(=O)N[C@@H]1C(=O)N2[C@@H]1SC(C)(C)[C@@H]2C(=O)O` [Methicillin sodium hydrate] here?
A: > 50 µM

Q: For `Brc1ccc(Br)cc1` [1,4-Dibromobenzene], which CC50 at 24 h (AC50 (uM) modified / 1000, Tox21_110001=Tox21_201288, viability, 1 nM T3 present, 24 h) is on record?
A: > 90 µM

Q: For `CC(C)CCCCCCc1ccc(OCCOCCO)cc1` [Igepal CO-890], which CC50 at 24 h (AC50 (uM) modified / 1000) is on record?
A: > 100 µM

Q: With `CCCCCCCCCCCCS` [1-Dodecanethiol] as the compound, how does the CC50 at 24 h (AC50 (uM) modified / 1000) read?
A: > 90 µM

Q: For `C=C(C)[C@H]1CN[C@H](C(=O)O)[C@H]1CC(=O)O` [Kainic acid], which CC50 at 24 h (AC50 (uM) modified / 1000, Tox21_110001=Tox21_110905, viability, 1 nM T3 present, 24 h) is on record?
A: > 50 µM

Q: Which CC50 at 24 h (AC50 (uM) modified / 1000) does the source give for `Cc1ccc(Cl)c(O)c1` [2-Chloro-5-methylphenol] here?
A: > 50 µM

Q: With `CC(=O)[C@H]1CC[C@H]2[C@@H]3C[C@H](C)C4=CC(=O)CC[C@]4(C)[C@H]3[C@@H](O)C[C@]12C` [Medrysone] as the compound, how does the CC50 at 24 h (AC50 (uM) modified / 1000) read?
A: > 20 µM

Q: For `CC(C)(C)NC[C@H](O)c1ccc(O)cc1Cl` [Meluadrine], which CC50 at 24 h (AC50 (uM) modified / 1000) is on record?
A: > 50 µM

Q: Which CC50 at 24 h (AC50 (uM) modified / 1000) does the source give for `CC(C)(C)C1=CC(=O)C=C(C(C)(C)C)C1=O` [2,6-Bis-(1,1-dimethylethyl)-2,5-cyclohexadiene-1,4-dione] here?
A: > 90 µM
